# Source: US20260317319A1, “NOVEL ERGOLINES AND METHODS OF TREATING MOOD DISORDERS” (Gilgamesh Pharma Inc., priority 2023, published 2026)
# “Also recorded” adds a separate entry of the source. Read-outs that look alike come from different tables or passages of the source.
# Experiments:
# [1] = target: T1, D2 dopamine receptor (Homo sapiens, UniProt P14416); assay: Ca2+ flux functional assay at D2; format: cell-based; conditions: for Emax: agonist, Ca2+ flux, max dose, read-out: D2 % Act @ Max Dose; for maximal efficacy at D2: compared to the N-methyl compound LSD
# T1 construct: expressed in transfected cells
# Procedure: Disclosed compounds were tested for agonist activity at several adrenergic (Alpha1A and Alpha2A) and dopamine (D1 and D2) receptor subtypes using Ca^2+ flux functional assays, with the results summarized in Table 6. Selectivity for the 5-HT2A receptor over these other targets varied depending on the specific target and compound.
# Functional Assays at Adrenergic and Dopamine Receptors. Agonist activity at Alpha1A, Alpha2A, D1, and D2 receptors was determined using a FLIPR Ca^2+ flux assay at WuXi AppTec (Hong Kong) Limited according to their standard protocols. Briefly, stably transfected cells expressing the receptor of interest were grown and plated in a 384 well plate and incubated at 37° C. and 5% CO2 overnight. A solution of 250 mM probenecid in 1 mL FLIPR assay buffer was prepared fresh. This was combined with a fluorescent dye (Fluo-4 Direct™) to make a final assay concentration of 2.5 mM. Compounds were diluted 1:3.16 for 10 points and 750 nL was added to a 384 well compound plate using ECHO along with 30 μL assay buffer. The fluorescent dye was then added to the assay plate along with assay buffer to a final volume of 40 μL. The cell plate was incubated for 50 min at 37° C. and 5% CO2 and placed into the FLIPR Tetra along with the compound plate. 10 μL of references and compounds were then transferred from the compound plate into the cell plate and the fluorescent signal was read.
# [2] = in vitro; format: in vitro ADME, human; conditions: human, microsomes, role: substrate, metabolite 83 formed in HLM, read-out: Metabolite Formation (percent formation of metabolite 83)
# Procedure: The ability of deuteration in compound 68 to attenuate formation of metabolite 83 compared to the same transformation of the non-deuterated compound 18 was also determined.
# HLM Stability. Pooled HLM from adult male and female donors (Corning 452117) were used.
# [3] = target: T2, 5-HT2B receptor (Homo sapiens, UniProt P41595); assay: 5-HT2B receptor radioligand binding ([3H]LSD); conditions: read-out: 5-HT2B Receptor Ki
# T2 construct: expressed in transfected cells; host or cells: HEK293, stably transfected
# [4] = tested on: Sprague Dawley rats; assay: Forced swim test (FST) in rats; format: in vivo, rat; conditions: for Time Immobile: rat FST, 10% DMSO in saline; for Time Immobile / effect on immobility in FST: 23.5 hours after a single dose; for effect on immobility in FST: rat
# Procedure: Compound 1 induced antidepressant-like effects in the forced swim test (FST) in rats with a 23.5-h pre-treatment time (FIG. 2).
# Animals. Male Sprague Dawley rats, aged 9-10 weeks, were used in this experiment. Animals were housed in groups of 2 under controlled temperature (22±3° C.) and relative humidity (30-70%) conditions, with 12-hour light/dark cycles, and with ad libitum food and water. This study was carried out in strict accordance with the requirements of the Committee for the Purpose of Control and Supervision of Experiments on Animals (CPCSEA), India. All efforts were made to minimize suffering.
# Forced Swim Test (FST). […] Rats were handled for about 2 min daily for the 5 days prior to the beginning of the experimental procedure. On the first day of the experiment (i.e., Day 0), post randomization, training swim sessions (Swim 1) were conducted between 12:00 and 18:00 h with all animals by placing rats in individual glass cylinders (46 cm tall×20 cm in diameter) containing 23-25° C. water 30 cm deep for 15 minutes. At the conclusion of Swim 1, animals were dried with paper towels, placed in heated drying cages for 15 minutes, and then returned to their home cages. Animals were then administered the appropriate drug or vehicle treatment(s), as described above. For clarity, a compound administration time of 23.5 h before Swim 2 means 0.5 h after the start of Swim 1 and 0.25 h after the completion of Swim 1 (i.e., immediately after return to the home cage). On Day 1 (i.e., 24 h after start of Swim 1), animals performed the test swim (Swim 2) for a period of 5 min but otherwise under the same conditions as Swim 1. During all swim sessions, the water was changed between each animal.
# Behavioral scoring was conducted by observers who were blind to the treatment groups. Animals were continuously observed during Swim 2 and the total time spent engaging in the following behaviors was recorded: immobile, swimming, and climbing. A rat was judged to be immobile when it remained floating in the water without struggling and was making only those movements necessary to keep its head above water. A rat was judged to be swimming when it made active swimming motions, more than necessary to merely maintain its head above water (e.g., moving around in the cylinder). A rat was judged to be climbing when it made active movements with its forepaws in and out of the water, usually directed against the walls.
# Statistical Analysis. The data points shown represent the mean±standard error of the mean (SEM). Analysis was performed using GraphPad Prism 6. Comparisons between groups were performed using the one-way analysis of variance (ANOVA), followed by Dunnett's test for comparisons to vehicle.
# Additional disclosed compounds were tested in the forced swim test (FST) in rats according to the procedure described in Example 58 (compounds 18 and 19 administered in 10% DMSO in saline).
# [5] = tested on: C57BL/6 mice; assay: Marble burying test (MBT) in mice; format: in vivo, mouse; conditions: 30-minute period, compared to vehicle, FIG. 3
# Procedure: Compound 1 produced an anxiolytic-like effect in the marble burying test (MBT) in C57BL/6 mice (FIG. 3).
# Animals. Adult male C57BL/6 mice, aged 8-10 weeks (body weight 20-25 g) were used in these experiments. Animals were housed under controlled temperatures and 12-hour light/dark cycles (lights on between 07:00-19:00 h), with ad libitum food and water. This study was carried out in strict accordance with the requirements of the Committee for the Purpose of Control and Supervision of Experiments on Animals (CPCSEA), India. All efforts were made to minimize suffering.
# Marble Burying Test (MBT). […] Mice were handled for about 2 min daily for the 3 days prior to the beginning of the experimental procedure. Twenty glass marbles (16 mm diameter) were placed with equal distances in a 5×4 pattern on a 5-cm layer of corn-cob bedding, with marbles at least 2 cm from the borders of the cage. The total number of marbles buried were counted in three 10-minute time bins (total 30 minutes). A marble was considered buried when it was >⅔ covered by bedding material.
# Statistical Analysis. The data points shown are the mean±standard error of the mean (SEM). Analysis was performed using GraphPad Prism 6. Comparisons between groups were performed using the one-way analysis of variance (ANOVA), followed by Dunnett's test for comparisons to vehicle. […]
# T2 sequence (P41595 whole entry): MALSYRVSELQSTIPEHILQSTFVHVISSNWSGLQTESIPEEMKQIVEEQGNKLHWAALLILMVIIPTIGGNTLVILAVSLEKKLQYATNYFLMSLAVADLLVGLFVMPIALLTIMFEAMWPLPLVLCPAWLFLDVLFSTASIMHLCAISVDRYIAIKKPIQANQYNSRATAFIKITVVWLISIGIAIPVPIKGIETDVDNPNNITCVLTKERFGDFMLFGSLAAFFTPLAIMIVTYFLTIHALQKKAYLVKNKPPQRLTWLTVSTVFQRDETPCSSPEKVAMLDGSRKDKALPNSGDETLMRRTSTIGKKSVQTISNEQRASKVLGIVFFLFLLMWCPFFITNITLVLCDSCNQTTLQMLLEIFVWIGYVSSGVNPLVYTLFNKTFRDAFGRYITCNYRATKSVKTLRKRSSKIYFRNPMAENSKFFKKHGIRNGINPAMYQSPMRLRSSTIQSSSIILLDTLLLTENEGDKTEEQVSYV
# T1 sequence (P14416 whole entry): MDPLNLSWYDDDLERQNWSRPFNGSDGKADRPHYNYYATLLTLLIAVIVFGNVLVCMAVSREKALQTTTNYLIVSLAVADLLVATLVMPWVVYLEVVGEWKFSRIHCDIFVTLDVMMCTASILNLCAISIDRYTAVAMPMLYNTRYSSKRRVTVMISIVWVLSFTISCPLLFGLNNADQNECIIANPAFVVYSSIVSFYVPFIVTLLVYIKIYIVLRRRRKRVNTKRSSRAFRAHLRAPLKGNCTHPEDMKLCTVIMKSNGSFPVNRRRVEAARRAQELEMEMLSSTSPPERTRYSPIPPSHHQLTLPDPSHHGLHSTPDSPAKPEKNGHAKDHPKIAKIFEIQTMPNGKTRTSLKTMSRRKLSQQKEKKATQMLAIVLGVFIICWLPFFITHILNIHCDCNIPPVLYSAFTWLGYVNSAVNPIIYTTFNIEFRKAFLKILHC
Structure (SMILES),Emax [1],Ki [3],maximal efficacy at D2 [1],also measured
"CCN(CC)C(=O)[C@@H]1C=C2c3cccc4[nH]cc(c34)C[C@H]2N(C)C1 [LSD, lysergic acid diethylamide, reference compound]",78.3%,–,–,–
"CCN(CC)C(=O)[C@@H]1C=C2c3cccc4[nH]cc(c34)C[C@H]2N(Cc2cccc(OC)c2)C1 [Compound 18, (6aR,9R)—N,N-diethyl-7-(3-methoxybenzyl)-4,6,6a,7,8,9-hexahydroindolo[4,3-fg]quinoline-9-carboxamide]",–,188 nM,–,metabolised ([2]; T = 0): 0.1%; metabolised ([2]; T = 5): 3.4%; metabolised ([2]; T = 15): 6.1%; metabolised ([2]; T = 30): 7.6%; metabolised ([2]; T = 45): 8.1%; metabolised ([2]; T = 60): 8.4%; Time Immobile ([4]; 0.1 mg/kg SC): 56.7 s; Time Immobile ([4]; 0.32 mg/kg SC): 61.2 s; effect on immobility in FST [4]: maximal effects equivalent to hallucinogenic compounds and the positive control
"CCN(C)C(=O)[C@@H]1C=C2c3cccc4[nH]cc(c34)C[C@H]2N(Cc2ccccc2)C1 [Compound 85, (6aR,9R)-7-benzyl-N-ethyl-N-methyl-4,6,6a,7,8,9-hexahydroindolo[4,3-fg]quinoline-9-carboxamide]",–,32.4 nM,–,–
"CCCN1C[C@H](C(=O)N2[C@@H](C)C[C@@H]2C)C=C2c3cccc4[nH]cc(c34)C[C@H]21 [Compound 4, ((2S,4S)-2,4-dimethylazetidin-1-yl)((6aR,9R)-7-propyl-4,6,6a,7,8,9-hexahydroindolo[4,3-fg]quinolin-9-yl)methanone]",117%,–,substantially higher maximal efficacy,–
"CCCN1C[C@H](C(=O)N(CC)CC)C=C2c3cccc4[nH]cc(c34)C[C@H]21 [Compound 1, (6aR,9R)—N,N-diethyl-7-propyl-4,6,6a,7,8,9-hexahydroindolo[4,3-fg]quinoline-9-carboxamide]",94.5%,–,substantially higher maximal efficacy,"immobility time in FST ([4]; highest dose, 23.5 h pre-treatment, relative to vehicle control, FIG. 2): reduced immobility time relative to vehicle control; number of marbles buried [5]: reduced the number of marbles buried in a 30-minute period compared to vehicle"
"CCCN1C[C@H](C(=O)N[C@H](C)CC)C=C2c3cccc4[nH]cc(c34)C[C@H]21 [Compound 3, (6aR,9R)—N—((R)-sec-butyl)-7-propyl-4,6,6a,7,8,9-hexahydroindolo[4,3-fg]quinoline-9-carboxamide]",117%,–,substantially higher maximal efficacy,–
"CCN(CC)C(=O)[C@@H]1C=C2c3cccc4[nH]cc(c34)C[C@H]2N(Cc2ccc(Cl)cc2)C1 [Compound 50, (6aR,9R)-7-(4-chlorobenzyl)-N,N-diethyl-4,6,6a,7,8,9-hexahydroindolo[4,3-fg]quinoline-9-carboxamide]",–,53.7 nM,–,–
"CCN(CC)C(=O)[C@@H]1C=C2c3cccc4[nH]cc(c34)C[C@H]2N(Cc2ccc(OC)cc2)C1 [Compound 19, (6aR,9R)—N,N-diethyl-7-(4-methoxybenzyl)-4,6,6a,7,8,9-hexahydroindolo[4,3-fg]quinoline-9-carboxamide]",–,225 nM,–,Time Immobile ([4]; 0.1 mg/kg SC): 76.4 s; Time Immobile ([4]; 0.32 mg/kg SC): 79.2 s; Time Immobile ([4]; 1 mg/kg SC): 96.0 s; Time Immobile ([4]; 3.2 mg/kg SC): 166.5 s; effect on immobility in FST [4]: maximal effects equivalent to hallucinogenic compounds and the positive control; also recorded: apparent therapeutic action of compound 19 decreased at higher doses
"CCN(CC)C(=O)[C@@H]1C=C2c3cccc4[nH]cc(c34)C[C@H]2N(CCCF)C1 [Compound 2, (6aR,9R)—N,N-diethyl-7-(3-fluoropropyl)-4,6,6a,7,8,9-hexahydroindolo[4,3-fg]quinoline-9-carboxamide]",91.2%,–,substantially higher maximal efficacy,–
"CCN(CC)C(=O)[C@@H]1C=C2c3cccc4[nH]cc(c34)C[C@H]2N(Cc2ccccc2OC)C1 [Compound 10, (6aR,9R)—N,N-diethyl-7-(2-methoxybenzyl)-4,6,6a,7,8,9-hexahydroindolo[4,3-fg]quinoline-9-carboxamide]",86.9%,–,–,–
"CCN(CC)C(=O)[C@@H]1C=C2c3cccc4[nH]cc(c34)C[C@H]2N(Cc2ccc(F)cc2)C1 [Compound 49, (6aR,9R)—N,N-diethyl-7-(4-fluorobenzyl)-4,6,6a,7,8,9-hexahydroindolo[4,3-fg]quinoline-9-carboxamide]",–,16.9 nM,–,–
"CCCN1C[C@H](C(=O)NC(CC)CC)C=C2c3cccc4[nH]cc(c34)C[C@H]21 [Compound 6, (6aR,9R)—N-(pentan-3-yl)-7-propyl-4,6,6a,7,8,9-hexahydroindolo[4,3-fg]quinoline-9-carboxamide]",91.7%,–,substantially higher maximal efficacy,–
